From US9896445B2, “Heterocyclic inhibitors of ERK1 and ERK2 and their use in the treatment of cancer” (Asana Biosciences, LLC, priority 2015, dated 2018)

Key:
ERK1 = biological target: T1, ERK1 (Homo sapiens, UniProt P27361); test: ERK1 HTRF (biochemical) assay; conditions: HTRF
T1 construct: purchased Jubilant Biosys
Protocol: (§1) ERK1 and ERK2 HTRF (Biochemical) Assays
These assays employed a homogeneous time resolved fluorescence (HTRF) technique. […] The plate was incubated at room temperature for 60 min with shaking. […] The IC50 values (half maximal inhibitory concentration values) were subsequently determined using a sigmoidal dose-response curve (variable slope) in GraphPad Prism® 5 software.

ERK2 = biological target: T2, ERK2 (Homo sapiens, UniProt P28482); test: ERK2 HTRF (biochemical) assay; conditions: HTRF
T2 construct: purchased Jubilant Biosys
Protocol: as §1
These assays employed a homogeneous time resolved fluorescence (HTRF) technique. The compounds were serially diluted by half-log with concentrations ranging from 0.0005 to 10 uM in the assay buffer (50 mM Tris pH=7.5, 1 mM EGTA, 2 mM DTT, 10 mM MgCl2, 0.1% Tween-20) and 20 uL of substrate-ATP mix [1 uM Biotin-LC-Myelin Basic Protein (MBP) derivatized Peptide (Anaspec)-24 uM ATP (Sigma)] was added to each well of the assay plate. Then 10 uL of enzyme mix [25 nM ERK1 or ERK2 (Jubilant Biosys) in assay buffer] was added to each well. The plate was incubated at room temperature for 60 min with shaking. The HTRF mix [625 nM LANCE® Ultra Europium-anti-phospho-MBP (Perkin Elmer) and 2 nM Phycolink® Streptavidin-Allophycocyanin (SA-APC) (Prozyme) in HTRF buffer (50 mM Tris-HCl pH=7.5, 100 mM NaCl, 0.1% BSA, 0.05% Tween20, 0.5 mM EDTA)] was prepared and 75 uL of this mix was added to the HTRF plate. After incubation for 60 min at room temperature, 10 uL of the reaction mixture was transferred to the HTRF assay plate and incubated for 45 min at room temperature with shaking. Plate was read using Pherastar in HTRF mode (excitation 337 nm, emission 665 & 620 nm). The IC50 values (half maximal inhibitory concentration values) were subsequently determined using a sigmoidal dose-response curve (variable slope) in GraphPad Prism® 5 software.

T1 sequence (P27361 whole entry): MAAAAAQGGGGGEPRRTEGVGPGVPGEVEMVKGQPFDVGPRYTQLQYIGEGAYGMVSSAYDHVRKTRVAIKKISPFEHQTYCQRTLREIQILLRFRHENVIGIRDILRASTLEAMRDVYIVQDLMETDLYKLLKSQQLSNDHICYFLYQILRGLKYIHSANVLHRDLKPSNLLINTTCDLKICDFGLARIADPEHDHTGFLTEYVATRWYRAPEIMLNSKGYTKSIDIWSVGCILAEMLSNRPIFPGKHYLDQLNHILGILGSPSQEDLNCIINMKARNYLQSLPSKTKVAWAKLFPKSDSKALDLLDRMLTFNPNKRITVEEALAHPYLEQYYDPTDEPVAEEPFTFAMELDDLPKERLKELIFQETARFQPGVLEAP
T2 sequence (P28482 whole entry): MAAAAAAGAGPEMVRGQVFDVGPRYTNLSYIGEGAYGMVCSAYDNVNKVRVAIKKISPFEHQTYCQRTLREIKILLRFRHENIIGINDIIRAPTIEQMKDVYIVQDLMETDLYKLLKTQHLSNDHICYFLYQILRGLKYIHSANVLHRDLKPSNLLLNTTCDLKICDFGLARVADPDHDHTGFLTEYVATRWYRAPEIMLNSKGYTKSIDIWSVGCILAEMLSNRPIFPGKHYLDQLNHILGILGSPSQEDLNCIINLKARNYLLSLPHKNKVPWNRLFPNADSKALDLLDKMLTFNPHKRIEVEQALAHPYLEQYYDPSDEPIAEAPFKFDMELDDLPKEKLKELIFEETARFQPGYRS

## Cc1cnc(NC2CCOCC2)nc1-n1cnc(C(=O)NC(CN)c2cccc(Cl)c2)c1 (racemic) [Compound 225, N-(2-Amino-1-(3-chlorophenyl)ethyl)-1-(5-methyl-2-((tetrahydro-2H-pyran-4-yl)amino)pyrimidin-4-yl)-1H-imidazole-4-carboxamide]
ERK1
  IC50: < 50 nM
ERK2
  IC50: ≤ 50 nM

## Cc1cnc(NC2CCOCC2)nc1-n1cnc(C(=O)N[C@@H](CN)c2cccc(Cl)c2)c1 (single isomer, unassigned) [Compound 225b]
ERK1
  IC50: < 50 nM
ERK2
  IC50: ≤ 50 nM

## Cc1cnc(Nc2ccc(F)cc2)cc1-n1cnc(C(=O)NC(CN)c2ccccc2)c1 (single isomer, unassigned) [Compound 228, N-(2-amino-1-phenylethyl)-1-(2-((4-fluorophenyl)-amino)-5-methyl-pyridin-4-yl)-1H-imidazole-4-carboxamide]
ERK1
  IC50: 100 to 500 nM
ERK2
  IC50: 100 to 500 nM

## Cc1cnc(NC2CCOCC2)nc1-n1cnc(C(=O)NC(c2cccc(Cl)c2)C(C)O)c1 (single isomer, unassigned) [Compound 252, N-(1-(3-chlorophenyl)-2-hydroxypropyl)-1-(5-methyl-2-((tetrahydro-2H-pyran-4-yl)amino)-pyrimidin-4-yl)-1H-imidazole-4-carboxamide]
ERK1
  IC50: < 50 nM
ERK2
  IC50: ≤ 50 nM

## Cc1cnc(NC2CCOCC2)nc1-n1cnc(C(=O)NC(CN)c2ccc(Cl)s2)c1 (single isomer, unassigned; enantiomer #1) [Example 290, N-(2-amino-1-(5-chlorothiophen-2-yl)ethyl)-1-(5-methyl-2-((tetrahydro-2H-pyran-4-yl)amino)-pyrimidin-4-yl)-1H-imidazole-4-carboxamide (enantiomer #1)]
ERK1
  IC50: < 50 nM
ERK2
  IC50: ≤ 50 nM

## Cc1cnc(NC2CCOCC2)nc1-n1cnc(C(=O)NC(CN)c2ccc(Cl)s2)c1 (single isomer, unassigned; enantiomer #2) [Example 291, N-(2-amino-1-(5-chlorothiophen-2-yl)ethyl)-1-(5-methyl-2-((tetrahydro-2H-pyran-4-yl)amino)-pyrimidin-4-yl)-1H-imidazole-4-carboxamide (enantiomer #2)]
ERK1
  IC50: < 50 nM
ERK2
  IC50: ≤ 50 nM

## CC(NC(=O)Nc1cnn(-c2ccnc(Nc3ccccc3Cl)n2)c1)c1cccc(Cl)c1 (centres unmarked) [Compound 5, 1-(1-(2-((2-chlorophenyl)amino)pyrimidin-4-yl)-1H-pyrazol-4-yl)-3-(1-(3-chloro-phenyl)ethyl)urea]
ERK1
  IC50: 100 to 500 nM

## O=C(NCc1cccc(Cl)c1)Nc1cnn(-c2ccnc(Nc3ccccc3Cl)n2)c1 [Compound 9, 1-(3-chlorobenzyl)-3-(1-(2-((2-chloro-phenyl)amino)pyrimidin-4-yl)-1H-pyrazol-4-yl)urea]
ERK2
  IC50: > 2500 nM

## C[C@@H](NC(=O)Nc1cnn(-c2ccnc(Nc3ccccc3Cl)n2)c1)c1cccc(Cl)c1 [Compound 10]
ERK2
  IC50: > 2500 nM

## Cc1c(NC(=O)N[C@H](CO)c2cccc(Cl)c2)cnn1-c1ccnc(Nc2ccccc2Cl)n1 [Compound 11, (S)-1-(1-(3-chlorophenyl)-2-hydroxyethyl)-3-(1-(2-((2-chloro-phenyl)amino)pyrimidin-4-yl)-5-methyl-1H-pyrazol-4-yl)urea]
ERK2
  IC50: > 2500 nM

## COc1cc(N2CCN(C(C)=O)CC2)ccc1Nc1nccc(-n2cc(NC(=O)N[C@H](CO)c3cccc(Cl)c3)cn2)n1 [Compound 15, (S)-1-(1-(2-((4-(4-acetylpiperazin-1-yl)-2-methoxy-phenyl)amino)pyrimidin-4-yl)-1H-pyrazol-4-yl)-3-(1-(3-chlorophenyl)-2-hydroxyethyl)urea]
ERK1
  IC50: 50 to 100 nM

## Cc1cnc(Nc2ccc(F)cc2Cl)nc1-n1cc(NC(=O)N[C@H](CO)c2cccc(Cl)c2)cn1 [Compound 25, (S)-1-(1-(2-((2-chloro-4-fluoro-phenyl)amino)-5-methylpyrimidin-4-yl)-1H-pyrazol-4-yl)-3-(1-(3-chloro-phenyl)-2-hydroxy-ethyl)urea]
ERK1
  IC50: < 50 nM

## Cc1cnc(Nc2ccc(F)cc2Cl)nc1-n1cc(NC(=O)N[C@H](CO)c2ccc(F)c(Cl)c2)cn1 [Compound 26, (S)-1-(1-(3-chloro-4-fluorophenyl)-2-hydroxyethyl)-3-(1-(2-((2-chloro-4-fluorophenyl)amino)-5-methyl-pyrimidin-4-yl)-1H-pyrazol-4-yl)urea]
ERK1
  IC50: < 50 nM

## Cc1cnc(Nc2ccc3c(c2)OCO3)nc1-n1cc(C(=O)N[C@H](CO)c2cccc(Cl)c2)cn1 [Compound 50, (S)-1-(2-(benzo[d][1,3]dioxol-5-ylamino)-5-methylpyrimidin-4-yl)-N-(1-(3-chloro-phenyl)-2-hydroxy-ethyl)-1H-pyrazole-4-carboxamide]
ERK2
  IC50: ≤ 50 nM

## O=C(NC(CO)c1cccc(Cl)c1)c1cnn(-c2ccnc(Nc3ccccc3)n2)c1 (centres unmarked) [Compound 52, N-(1-(3-chloro-phenyl)-2-hydroxy-ethyl)-1-(2-(phenyl-amino)pyrimidin-4-yl)-1H-pyrazole-4-carboxamide]
ERK2
  IC50: 100 to 500 nM

## Cc1cnc(Nc2ccc(F)cc2Cl)nc1-n1cc(NC(=O)N[C@@H](CO)c2cccc(Cl)c2)cn1 [Compound 56, (R)-1-(1-(2-((2-chloro-4-fluoro-phenyl)amino)-5-methylpyrimidin-4-yl)-1H-pyrazol-4-yl)-3-(1-(3-chloro-phenyl)-2-hydroxy-ethyl)urea]
ERK2
  IC50: 100 to 500 nM

## Cc1cnc(Nc2ccccc2Cl)nc1-n1cc(NC(=O)N[C@@H](CO)c2cccc(Cl)c2)cn1 [Compound 61, (R)-1-(1-(3-chlorophenyl)-2-hydroxyethyl)-3-(1-(2-((2-chloro-phenyl)amino)-5-methylpyrimidin-4-yl)-1H-pyrazol-4-yl)urea]
ERK2
  IC50: 500 to 2500 nM

## Cc1cnc(Nc2ccc3occc3c2)nc1-n1ccc(C(=O)NC(CO)c2ccccc2)c1 (centres unmarked) [Compound 65, 1-(2-(benzofuran-5-ylamino)-5-methylpyrimidin-4-yl)-N-(2-hydroxy-1-phenylethyl)-1H-pyrrole-3-carboxamide]
ERK2
  IC50: ≤ 50 nM

## Cc1cnc(Nc2ccc(F)cc2Cl)nc1-n1ccc(C(=O)N[C@@H](CN(C)C)c2ccccc2)c1 [Compound 97, (R)-1-(2-((2-chloro-4-fluorophenyl)amino)-5-methy-lpyrimidin-4-yl)-N-(2-(dimethylamino)-1-phenylethyl)-1H-pyrrole-3-carboxamide]
ERK2
  IC50: 100 to 500 nM

## Cc1cnc(Nc2ccc3ocnc3c2)nc1-n1ccc(C(=O)NC(CO)c2ccccc2)c1 (centres unmarked) [Compound 104]
ERK2
  IC50: 100 to 500 nM

## NCC(Cc1ccccc1)NC(=O)c1ccn(-c2ccnc(Nc3ccc(F)cc3)c2)c1 (centres unmarked) [Compound 119, N-(1-amino-3-phenylpropan-2-yl)-1-(2-((4-fluoro-phenyl)amino)pyridin-4-yl)-1H-pyrrole-3-carboxamide]
ERK2
  IC50: 100 to 500 nM

## Cc1cnc(NC2CCOCC2)nc1-n1ccc(C(=O)NC(CO)c2ccccc2)c1 (centres unmarked) [Compound 120, N-(2-hydroxy-1-phenylethyl)-1-(5-methyl-2-((tetrahydro-2H-pyran-4-yl)amino)pyrimidin-4-yl)-1H-pyrrole-3-carboxamide]
ERK2
  IC50: 100 to 500 nM

## O=C(NC(CO)c1ccccc1)c1ccn(-c2nc(Nc3ccc(F)cc3Cl)ncc2C(F)(F)F)c1 (centres unmarked) [Compound 122, 1-(2-((2-chloro-4-fluorophenyl)amino)-5-(trifluoro-methyl)pyrimidin-4-yl)-N-(2-hydroxy-1-phenylethyl)-1H-pyrrole-3-carboxamide]
ERK2
  IC50: > 2500 nM
